Here are results for 1 compound from patent US20230279018A1, “AP[…] INHIBITION” (priority 2020, published 2023).

The assay addresses T1, PfcFRS (Plasmodium falciparum, UniProt Q8I246).
T1 sequence (Q8I246 1-575): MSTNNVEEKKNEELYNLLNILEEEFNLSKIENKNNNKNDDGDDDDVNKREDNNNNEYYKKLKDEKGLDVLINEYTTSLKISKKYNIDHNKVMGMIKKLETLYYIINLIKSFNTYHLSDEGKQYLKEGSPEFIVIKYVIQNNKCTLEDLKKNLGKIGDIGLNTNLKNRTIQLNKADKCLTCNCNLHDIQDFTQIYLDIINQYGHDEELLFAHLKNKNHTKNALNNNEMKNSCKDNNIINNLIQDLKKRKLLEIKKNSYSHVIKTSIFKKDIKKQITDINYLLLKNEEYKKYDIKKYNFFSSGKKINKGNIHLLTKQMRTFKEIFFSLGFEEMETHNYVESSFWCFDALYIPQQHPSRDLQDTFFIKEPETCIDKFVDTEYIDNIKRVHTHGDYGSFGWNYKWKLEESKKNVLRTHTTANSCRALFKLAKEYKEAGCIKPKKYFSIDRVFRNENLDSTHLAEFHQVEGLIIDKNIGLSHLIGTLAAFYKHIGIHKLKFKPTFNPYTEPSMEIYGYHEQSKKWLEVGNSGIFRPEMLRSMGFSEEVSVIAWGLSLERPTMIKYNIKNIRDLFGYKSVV
T1 sequence (Q8IIW2 1-623 partner): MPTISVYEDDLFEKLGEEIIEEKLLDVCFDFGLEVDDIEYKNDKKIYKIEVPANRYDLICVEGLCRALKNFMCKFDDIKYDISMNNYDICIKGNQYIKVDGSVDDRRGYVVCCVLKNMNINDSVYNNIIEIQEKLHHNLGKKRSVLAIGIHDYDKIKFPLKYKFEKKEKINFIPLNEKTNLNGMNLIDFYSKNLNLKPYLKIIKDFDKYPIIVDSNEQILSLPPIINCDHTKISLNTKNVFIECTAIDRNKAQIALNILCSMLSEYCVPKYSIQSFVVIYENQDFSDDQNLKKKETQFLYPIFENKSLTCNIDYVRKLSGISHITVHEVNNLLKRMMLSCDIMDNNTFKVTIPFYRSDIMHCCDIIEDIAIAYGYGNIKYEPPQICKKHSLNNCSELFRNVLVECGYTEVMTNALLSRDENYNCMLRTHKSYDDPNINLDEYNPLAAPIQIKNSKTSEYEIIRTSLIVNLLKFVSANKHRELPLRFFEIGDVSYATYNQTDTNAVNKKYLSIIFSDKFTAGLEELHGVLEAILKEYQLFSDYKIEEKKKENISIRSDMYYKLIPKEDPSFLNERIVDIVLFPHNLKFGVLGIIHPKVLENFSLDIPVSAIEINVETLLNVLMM
In words: Surface Plasmon Resonance binding, PfcFRS. Conditions: SPR, 25° C., PBS pH 7.4, 5% DMSO; read-out: cFRS Kd, Pf. The method, then: Surface Plasmon Resonance experiments to evaluate the binding of Compound 1 to proteins were carried out on a Biacore T200 instrument (GE Healthcare) at 25° C. The binding experiments were performed in buffer 10 mM phosphate buffered saline (PBS), pH 7.4, containing 5% dimethyl sulfoxide (DMSO). The flow system was primed with the running buffer before the initiation of the experiment. Both PfcFRS and HscFRS were immobilized to Sensor Chip CM5 by standard amine coupling chemistry using N-hydroxysuccinimide (NHS) and ethyl(dimethylaminopropyl) carbodiimide (EDC), to an immobilization level of approximately 1500 RU. The binding experiments were carried out in a single cycle kinetics mode. Compound 1 was serially diluted in running buffer, and injected at a flow rate of 60 μl min^−1 across both surface for 60 s and dissociation were set up for 120 s. The analysis was done using Biaevaluation (GE Healthcare) and GraphPad Prism 7 software (GraphPad Software Inc, USA). […] The equilibrium dissociation constants (Kd) were determined by plotting the measured response (Req) as a function of the analyte concentration. […] Measured sensograms illustrating the binding of various concentrations of Compound 1 to the protein are shown in FIG. 3B (PfcFRS) and 3C (HscFRS) including both the measured data and the 1:1 binding model fit.

As for `COC[C@@H]1[C@H](c2ccc(C#Cc3ccccc3)cc2)[C@@H]2CN(C(=O)Nc3ccc(OC4CC4)cc3)C[C@@H](O)[C@@H](O)CN12` [Compound 1, (3S,4R,8R,9R,10S)—N-(4-cyclopropoxyphenyl)-3,4-dihydroxy-10-(methoxymethyl)-9-(4-(phenylethynyl)phenyl)-1,6-diazabicyclo[6.2.0]decane-6-carboxamide], the dissociation constant Kd (in general, the constant that tells how readily two partners part at equilibrium) was found to be 4 nM.
